Results as given in patent publication US8603493B2, “Carbosilane dendrimers, preparation method thereof and use of same” (Dendrico, S.L., priority 2005, dated 2013).
“Also recorded” adds a separate entry of the source.

Columns and labels:
[1] = system: U87-MG cells; experiment: Transfection of U87-MG cells mediated by dendrimers (flow cytometry); type: cell-based; settings: dendriplex with anti-rev oligonucleotide 250 nM, − charge/+ charge ratio 1:8, 24 hours
Experimental: (§1) 100000 cells/well were plated of the corresponding cell line in a 24-well plate with 500 μl of medium.
(§2) Dendriplexes were formed with dendrimers NN and NN16 and the fluorescent anti-rev antisense oligonucleotide in a total volume of 75 μl of medium without serum, wherein the anti-rev oligonucleotide was mixed at a concentration 250 nM and the corresponding dendrimer in different proportions, so that different − charge/+ charge ratios were obtained: 1:1, 1:2, 1:4 and 1:8. The mixture was incubated during half an hour at ambient temperature and then it was added to the corresponding well to incubate the cells with dendriplexes.
(§3) After 24 hours of incubation, the cells were removed from the well, they were washed twice with PBS, they were incubated for 1 minute with acid glycine to remove the possible moieties of dendriplexes which may have remained adhered on the cell membrane, and a final wash was performed with PBS. Finally, the cells were resuspended in 500 μl of PBS and the quantity of fluorescent oligonucleotide inside the cell was quantified by flow cytometry.

[2] = system: SK-N-MC cells; experiment: Proliferation of SK-N-MC cells incubated with dendrimers (MTS); type: cell-based; settings: 3 days
Experimental: (§4) The tests were performed with the dendrimers NN (2G-[Si(O(CH2)2N(Me)(CH2)2NMe3^+I^−)]8 (26)) and NN16 (2G-[Si(O(CH2)2N^+(Me)2(CH2)2NMe3^+2I^−)]8 (36)). The transfection tests were performed with the anti-rev RF ODN (SEQ ID NO:2). The culture medium was DMEM+10% bovine foetal serum.
(§5) Different experiments were performed, one with SK-N-MC cells and another with U-87-MG cells, which studied the effect of the dendrimers on the proliferation of said lines. For this, 7000 cells/well were plated of the corresponding in a 96-well dish. […] As positive proliferation control, cells were incubated with 20 μg/ml of LPS and, as positive death induction control, cells were used incubated with 7% DMSO. As negative control untreated cells were used.

[3] = system: U87-MG cells; experiment: Proliferation of U-87-MG cells incubated with dendrimers (MTS); type: cell-based; settings: 1 μM, 5 μM and 10 μM, 3 days
Experimental: as §4, §5

[4] = system: SK-N-MC cells; experiment: Transfection of SK-N-MC cells mediated by dendrimers (flow cytometry); type: cell-based; settings: dendriplex with anti-rev oligonucleotide 250 nM, − charge/+ charge ratio 1:4, 24 hours
Experimental: as §1, §2, §3

[5] = system: U87-MG cells; experiment: Toxicity in U-87-MG cells: LDH in the supernatant; settings: 24 hours
From the text: The concentrations and volumes of each one of these compounds were the same used in the test performed with MTT. The commercial kit Cytotoxicity Detection KitPLUS (LDH), from Roche Applied Science was used to determine lactate dehydrogenase, following the manufacturer's instructions.

[6] = Dendrimer-drug binding test (polyacrylamide gel delay), methotrexate; settings: dendrimer 100 μM, charge ratios 1+/1− to 8+/1−, 37° C., 1 hour
Experimental: (§6) The drugs chosen to perform the tests, all with at least one negative charge at physiological pH, were: • Methotrexate (sodium salt): • 1 charge (−) • Supplying laboratory: Almirall • Presentation: 25 mg/ml solution • Excipients: NaCl, NaOH, HCl, double-distilled H2O • Heparin (sodium salt) • Several charges (−) • Supplying laboratory: Rovi • Presentation: 10 mg/ml solution (1000 U) • Excipients: methyl p-oxybenzoate, propyl p-oxybenzoate, NaCl, double-distilled H2O • Insulin (recombinant human insulin) • 4 charges (−) • Supplying laboratory: Novo Nordisk • Product trade name: Actrapid • Presentation: 3.5 mg/ml solution (100 U) • Excipients: ZnCl2, HCl, NaOH, double-distilled H2O
(§7) The determination of the bond and complex formation between the dendrimer and the drug was performed by evaluating the delay in the polyacrylamide gel of the dendrimer bound to drug with respect to the free dendrimer: • Complex formation: It is performed in a final volume of the mixture of 30 μl, which is the maximum volume to load in the gel. To do this, one starts from the necessary quantity of dendrimer that provides a perfectly identifiable band by staining with silver nitrate in the gel once the electrophoresis has been carried out: 20 μl of a 100 μM solution, which corresponds to […] molecules. The drug is added in the 10 μl at different concentrations to produce the chosen (+) and (−) charge ratios, also determining the quantity of drug molecules present in the mixture. An incubation of said mixture was performed at 37° C. during 1 hour to give time for a more thermodynamically stable complex to form, although more time may be needed for its formation. Each complex is performed in duplicate. • Electrophoresis and gel staining: The gels used were 7.5% polyacrylamide/bisacrylamide, prepared with 1.5M Tris pH 8.8. Each electrophoresis was carried out at 90 volts during 4 hours, after which the gel was stained with silver nitrate and photographed. […]

[7] = system: U87-MG cells; experiment: Toxicity in U-87-MG cells: tests with MTT
Experimental: A test with U-87-MG cells was performed, wherein the effect of the dendrimers on the viability of said lines was studied at different times. To do this, 15000 (24 hour incubations), 7000 (3 day incubations) or 1500 (7 day incubations) cells per well were plated in 96-well plates. The cells were incubated with different concentrations (1 μM, 5 μM and 10 μM) either NN dendrimer or NN16 dendrimer, during 24 hours, 3 days and 7 days. […] Two different positive controls were also used: cells treated with 7% DMSO and cells treated with 1% Triton X-100.
In the case of Superfect, three doses were tested, the optimum dose recommended by the manufacturer (2.5 μl), a lower dose (1.25 μl) and another higher dose (5 μl). With regard to Polyfect, specifically designed for adherent cells, the three doses tested were: optimum dose (0.6 μl), lower dose (0.3 μl) and higher dose (1.2 μl).
After each corresponding incubation time, a test was performed with MTT analogous to that described in Example 38. At the absorbance value obtained in the untreated cells (C−) it was given the value of 1 and the moiety of the absorbencies produced was used to refer to it.

[8] = target: T1, Insulin (recombinant human insulin) (Homo sapiens, UniProt P01308); experiment: Dendrimer-drug binding test (polyacrylamide gel delay), insulin; settings: dendrimer 100 μM, insulin 1, 0.5, 0.1, 0.05 U, 37° C., 1 hour
T1 construct: Despite having its molecular weight (5825 g/mol) and establishing an average of 4 (−) charges; purchased Novo Nordisk Actrapid (trade name; no catalogue number given)
T1 sequence (P01308 25-54 limits assumed): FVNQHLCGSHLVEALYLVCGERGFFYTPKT
T1 sequence (P01308 90-110 limits assumed): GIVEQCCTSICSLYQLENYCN
Experimental: as §6, §7

[9] = Dendrimer-drug binding test (polyacrylamide gel delay), heparin; settings: dendrimer 100 μM, heparin 10, 1, 0.5, 0.1 U, 37° C., 1 hour
Experimental: as §6, §7

[10] = system: SK-N-MC cells; experiment: Toxicity in SK-N-MC cells: test with MTT; type: cell-based; settings: 24 hours, 1, 5, 10 μM

C[N+](C)(C)CC[N+](C)(C)CCO[Si](C)(C)CCC[Si](C)(CCC[Si](CCC[Si](C)(CCC[Si](C)(C)OCC[N+](C)(C)CC[N+](C)(C)C)CCC[Si](C)(C)OCC[N+](C)(C)CC[N+](C)(C)C)(CCC[Si](C)(CCC[Si](C)(C)OCC[N+](C)(C)CC[N+](C)(C)C)CCC[Si](C)(C)OCC[N+](C)(C)CC[N+](C)(C)C)CCC[Si](C)(CCC[Si](C)(C)OCC[N+](C)(C)CC[N+](C)(C)C)CCC[Si](C)(C)OCC[N+](C)(C)CC[N+](C)(C)C)CCC[Si](C)(C)OCC[N+](C)(C)CC[N+](C)(C)C [NN16, 2G-[Si(O(CH2)2N^+(Me)2(CH2)2NMe3^+2I^−)]8]
percentage of cells transfected [1]: 97.8% | effect on cell proliferation (MTS) ([2]; 1 μM and 5 μM): do not produce toxicity nor cell proliferation | effect on cell proliferation (MTS) ([2]; 10 μM): toxic | effect on cell proliferation (MTS) [3]: neither induce proliferation nor cell death | percentage of cells transfected (maximum transfection) [4]: 82.3% | cytotoxicity (LDH), comparison [5]: greater cytotoxicity as their concentration increases; also recorded: less toxic than NN | dendrimer-methotrexate complex formation (delay in gel) [6]: complex is formed | viability (MTT), untreated cells (C−) = 1 ([7]; 3 days, any one of the three concentrations (1, 5, 10 μM)): ~0.8 | viability (MTT), untreated cells (C−) = 1 ([7]; 7 days, 10 μM): 0.7 | dendrimer-insulin complex formation (delay in gel) [8]: complex is formed | dendrimer-heparin complex formation (delay in gel) [9]: complex is formed | toxicity (MTT), comparison [10]: least toxicity
